pKi: −log10 of the molar value.
Target: T1, Orexin/Hypocretin receptor type 1 (Homo sapiens, UniProt O43613)
T1 sequence (O43613 whole entry): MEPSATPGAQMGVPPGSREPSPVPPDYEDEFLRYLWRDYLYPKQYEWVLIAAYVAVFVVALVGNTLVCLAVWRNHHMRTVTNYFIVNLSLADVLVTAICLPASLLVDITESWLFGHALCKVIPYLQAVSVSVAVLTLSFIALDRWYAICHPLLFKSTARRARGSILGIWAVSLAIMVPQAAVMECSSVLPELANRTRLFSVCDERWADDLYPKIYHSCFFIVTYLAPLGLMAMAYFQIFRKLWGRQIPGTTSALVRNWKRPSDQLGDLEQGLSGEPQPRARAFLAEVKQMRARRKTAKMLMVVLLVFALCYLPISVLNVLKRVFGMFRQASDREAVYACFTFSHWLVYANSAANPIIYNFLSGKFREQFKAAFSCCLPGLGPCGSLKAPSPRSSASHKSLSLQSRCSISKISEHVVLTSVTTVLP
Experiment: Displacement of [3H]-[…] from human orexin 1 receptor expressed in CHO cells incubated for 2 hrs by whole cell radioligand binding assay

| SMILES | pKi |
| --- | --- |
| O=C1NC(=O)C(=Cc2c(OCc3ccccc3F)ccc3ccccc23)C(=O)N1 | 4.48 |
| O=C(/C=C/c1cccc(F)c1)N1CCOc2c(cc(-c3cccnc3)cc2OC[C@H]2CCCCO2)C1 | 4.67 |
| O=C(c1sc2cccc(F)c2c1Cl)N1CCN(Cc2ccco2)CC1 | 4.36 |
| O=C1CCCN1c1cccc(C(=O)N(Cc2ccc(F)cc2)C2CC2)c1 | 4.49 |
| COc1ccc(C(=O)Oc2cc(=O)n(-c3ccccc3)c3c2CCCC3)cc1 | 4.61 |

Source: BindingDB's records for doi:10.1021/acs.jmedchem.0c00964 (Philipps-University, 2020)
